In ChEMBL document CHEMBL1137745, “Computational modeling and surface plasmon resonance analyses in the assessment of peptide ligands interacting with fibrin gamma(312-324) epitope” (Eur J Med Chem, 2009):
Peptide text beside a SMILES is read from it.

Columns and labels:
[1] = Binding affinity to gamma (312-324) epitope of human fibrinogen measured at flow rate of 5 ul/min by Biacore X system
[2] = Binding affinity to gamma (312-324) epitope of human fibrinogen measured at flow rate of 30 ul/min by Biacore X system
[3] = Binding affinity to gamma (312-324) epitope of human fibrinogen by Biacore X system

Molecule | Kd [1] | Kd [2] | Kd [3]
N=C(N)NCCC[C@H](NC(=O)[C@H](CCC(=O)O)NC(=O)[C@@H](N)CCCCN)C(N)=O (H-Lys-Glu-Arg-NH2) | 13 µM | 21.9 µM | 17.5 µM
NCCCC[C@H](NC(=O)[C@H](CCC(=O)O)NC(=O)[C@@H](N)CCCCN)C(N)=O (H-Lys-Glu-Lys-NH2) | 35 µM | 15 µM | 25 µM
Ac-RDKDR-OH | 30.4 µM | 16.8 µM | 23.6 µM

The remaining lines, values ahead:

Kd [1] | Kd [2] | Kd [3] | Molecule
52.6 µM | 16.2 µM | 34.4 µM | N=C(N)NCCC[C@H](NC(=O)[C@H](CC(=O)O)NC(=O)[C@@H](N)CCCCN)C(N)=O (H-Lys-Asp-Arg-NH2)
0.3 µM | 0.2 µM | 0.25 µM | H-RDKDR-NH2
